Source: publication PMC6302136, “Quantitative Chemotherapeutic Profiling of Gynecologic Cancer Cell Lines Using Approved Drugs and Bioactive Compounds^” (Translational Oncology, 2018)
Like-named read-outs stand apart in the source and are kept apart here. Values belong to the compound of their own block, whether it stands above or below them.

Tests used:
HEK 293T cells [1] = test system: HEK 293T cells; parameters: method as in PMID 31498718; conditions: CellTiterGlo, cited from earlier work; for IC50: independent screen
[2] = test system: 11 gynecologic cancer cell lines; assay: qHTS ATPlite cell viability, gynecologic cancer cell lines (ovarian, cervical, placental); format: cell-based, human; conditions: for Average SI: selectivity index vs HEK 293T; for Cell Lines Active: number of the 11 cancer cell lines in which the compound is active (<1 μM potency, >70% efficacy)
Method: (§1) The ATPlite luminescence assay system assay kit was used to determine cell viability. The reagent was reconstituted and prepared as described by the manufacturer. To measure the cell death caused by the compounds, cells were cultured in 4 μl of media for 16 hours at 37°C with 5% CO2 in assay plates, followed by the addition of DMSO or 16 SOC chemotherapeutic compounds dissolved in DMSO. SOC compounds were dosed at 11 concentrations (1:3 dilution) in quadruplicate from 57.5 μM to 0.977 nM using the automated Wako 1536 Pin Tool workstation and incubated at 37°C with 5% CO2 for 24, 48, or 72 hours. Four microliters of ATPlite, the ATP monitoring reagent, was then added to each well of the assay plates using the Multidrop Combi reagent dispenser followed by incubation for 15 minutes at room temperature. The resulting luminescence was measured using the ViewLux plate reader. Data were normalized for each drug using the largest luminescence value as 100% full cell viability (0% cell killing) and to the smallest luminescence value 0% viability (100% cell killing).
(§2) A qHTS [79], in which each compound was assayed in five concentrations (0.092, 0.46, 2.3, 11.5, and 57.5 μM), was performed for the primary compound screen using the NPC [80] and NPACT drug libraries at NCATS. The OBGYN cancer and HEK 293T control cells were seeded into 1536-well assay plates at 1000 cells per 4 μl/well and incubated at 37°C in 5% CO2 for 48 hours. The ATPlite assay to determine the IC50 values for each compound was conducted as described above. Plates were processed on the fully integrated Kalypsys robotic system.

HEK 293T cells [3] = assay: cells; conditions: for IC50: read-out: IC50 (HEK 293T toxicity)
Method: as §1, §2

[4] = test system: placental cancer cell lines (JAR, JEG-3); assay: qHTS ATPlite cell viability, placental cancer cell lines; format: cell-based, human; conditions: for Average SI: vs HEK 293T, >100 = inactive in HEK293T
Method: as §1
The ATPlite assay to determine the IC50 values for each compound was conducted as described above. Plates were processed on the fully integrated Kalypsys robotic system.

PA-1 cells = assay: ATP content (ATPlite) cell viability assay in PA-1 cells; format: cell-based, human; conditions: for IC50: Homo sapiens, PA-1, confirmation screen, 48 h, read-out: Avg IC50; for Avg SI: PA-1 selective compounds, vs HEK 293T, >100 = inactive in HEK293T
[5] = Homo sapiens, toxic compounds, average over all cancer cell lines, 48 h, mean ± S.D., read-out: Average IC50
[6] = toxic compounds, average over all cancer cell lines, mean ± S.D.
[7] = HEK 293T, this screen (ATPlite), 48 h
[8] = Homo sapiens, JEG-3, Placental cancer cell line killer, mean of cell lines fulfilling criteria, 48 h, read-out: Average IC50
[9] = Placental cancer cell line killer
[10] = Homo sapiens, average IC90 over the cell lines in which the compound is active, read-out: IC90

Compound: COc1ccc(-c2ccc3ncc4c(c3c2)n(-c2ccc(N3CCNCC3)c(C(F)(F)F)c2)c(=O)n4C)cn1 [NVP-BGT226]
Efficacy (%) (independent screen, HEK 293T) (HEK 293T cells [1]): 115% | Independent Screen (confirmation of HEK 293T toxicity) (HEK 293T cells [1]): Confirmed toxic | IC50 (HEK 293T cells [1]): 14.5 nM | IC50 [2, 5]: 5.34 ± 6.56 µM | Average SI [2, 6]: 0.20 ± 0.26 | Efficacy (%) (HEK 293T toxicity) (HEK 293T cells [3]; [7]): 106% | IC50 (HEK 293T cells [3]; Homo sapiens, HEK-293T, 48 h): 258 nM

Compound: N=C(N)c1ccc(OCCCCCOc2ccc(C(=N)N)cc2)cc1 [Nebupent]
IC50 [4, 8]: 4.9 ± 1.02 µM | Average SI [4, 9]: >100

Compound: CC(C)CC(=O)Nc1[nH]nc2c1CN(C(=O)C1CCN(C)CC1)C2(C)C [PHA-793887]
IC50 (PA-1 cells): 194 nM | Avg SI (PA-1 cells): 12.3

Compound: CN(C)C1CCN(C(=O)c2ccc(NC(=O)Nc3ccc(-c4nc(N5CCOCC5)nc(N5CCOCC5)n4)cc3)cc2)CC1 [Gedatolisib]
IC90 ([2]; Homo sapiens): 6800 nM | Cell Lines Active [2]: 4

Compound: CCN(CC)Cc1ccc2cc(COC(=O)Nc3ccc(C(=O)NO)cc3)ccc2c1 [Givinostat]
Efficacy (%) (independent screen, HEK 293T) (HEK 293T cells [1]): 112% | Independent Screen (confirmation of HEK 293T toxicity) (HEK 293T cells [1]): Confirmed toxic | IC50 (HEK 293T cells [1]): 1110 nM | IC50 [2, 5]: 3.5 ± 3.88 µM | Average SI [2, 6]: 1.74 ± 1.25 | Efficacy (%) (HEK 293T toxicity) (HEK 293T cells [3]; [7]): 65.6% | IC50 (HEK 293T cells [3]; Homo sapiens, HEK-293T, 48 h): 2910 nM | toxicity to HEK 293T cells (HEK 293T cells [3]; human, 48 h): equally toxic to HEK 293T cells

Compound: C=C(C)[C@H]1Cc2c(ccc3c2O[C@@H]2COc4cc(OC)c(OC)cc4[C@@H]2C3=O)O1 [Rotenone]
IC50 ([4]; Homo sapiens, JEG-3, 48 h, read-out: Average IC50 (μM)): 0.0418 ± 0.0134 µM | Average SI [4, 9]: 19.5 ± 6.26

Compound: COc1cccc2c1C(=O)c1c(O)c3c(c(O)c1C2=O)C[C@@](O)(C(=O)CO)C[C@@H]3O[C@H]1C[C@H](N)[C@H](O[C@@H]2CCCCO2)[C@H](C)O1 [Pirarubicin]
IC50 (PA-1 cells): 839 nM | Avg SI (PA-1 cells): 14.6

Compound: COc1ccc2cc3[n+](cc2c1OC)CCc1cc2c(cc1-3)OCO2 [Berberine]
IC50 [4, 8]: 4.41 ± 0.662 µM

Compound: CCc1c2c(nc3ccc(O)cc13)-c1cc3c(c(=O)n1C2)COC(=O)[C@]3(O)CC [SN-38]
IC90 ([2]; average IC90 over the cell lines in which the compound is active, read-out: IC90): 592 nM | Cell Lines Active [2]: 4

IC90 [2, 10]: 283 nM | IC50 ([2]; Homo sapiens, average over the cell lines in which the compound was active, read-out: average IC50): 0.173 µM
Compound: CN(NC(=O)CC(=O)NN(C)C(=S)c1ccccc1)C(=S)c1ccccc1 [Elesclomol]
Cell Lines Active [2]: six | Cell Lines Active ([2]; listed as Elesclomol (STA-4783)): 6

Compound: Cc1ccc(C(=O)Nc2ccc(CN3CCN(C)CC3)c(C(F)(F)F)c2)cc1C#Cc1cnc2cccnn12 [Ponantinib]
Efficacy (%) (independent screen, HEK 293T) (HEK 293T cells [1]): 92.6% | Independent Screen (confirmation of HEK 293T toxicity) (HEK 293T cells [1]): Confirmed toxic | IC50 (HEK 293T cells [1]): 811 nM | IC50 ([2]; Homo sapiens, 48 h, read-out: Average IC50 (μM)): 15.9 ± 9.07 µM | Average SI [2, 6]: 3.56 ± 4.85 | Efficacy (%) (HEK 293T toxicity) (HEK 293T cells [3]; [7]): 92% | IC50 (HEK 293T cells [3]; Homo sapiens, HEK-293T, 48 h): 19900 nM

Compound: O=C(Nc1cccnc1)N1CCC(Cc2cccc(Oc3ccc(C(F)(F)F)cn3)c2)CC1 [PF-3845]
IC50 [4, 8]: 9.31 ± 1.15 µM | Average SI [4, 9]: >100

Compound: COc1c(C)c2c(c(O)c1C/C=C(\C)CCC(=O)OCCN1CCOCC1)C(=O)OC2 [Mycophenolate mofetil]
IC50 (PA-1 cells): 631 nM | Avg SI (PA-1 cells): >100 | Avg SI (PA-1 cells; listed as mycophenolate mofetil): > 100

Compound: CC[C@@H]1C(=O)N(C)c2cnc(Nc3ccc(C(=O)NC4CCN(C)CC4)cc3OC)nc2N1C1CCCC1 [BI-2536]
IC90 ([2]; Homo sapiens): 39.7 nM | Cell Lines Active [2]: 4

IC90 [2, 10]: 275 ± 28 nM
Compound: CC[C@@]1(O)C(=O)OCc2c1cc1n(c2=O)Cc2c-1nc1ccccc1c2/C=N/OC(C)(C)C [Gimatecan]
Cell Lines Active [2]: 4 | IC50 (PA-1 cells): 33.7 nM | Avg SI (PA-1 cells): 12.5

Compound: O=C(CCCCCCC(=O)Nc1ccccc1)NO [Vorinostat]
Efficacy (%) (independent screen, HEK 293T) (HEK 293T cells [1]): 80.2% | Independent Screen (confirmation of HEK 293T toxicity) (HEK 293T cells [1]): Confirmed toxic | Efficacy (%) (HEK 293T toxicity) (HEK 293T cells [3]; [7]): 64.7% | toxicity to HEK 293T cells (HEK 293T cells [3]; compared with suppression of the 11 gynecologic cancer cell lines): equally toxic to HEK 293T cells

Compound: Cc1csc(NC(=O)CSc2nc3c(c(C(F)(F)F)c2C#N)CCC3)n1 [Irestatin 9389]
IC50 ([2]; toxic compounds, average over all cancer cell lines, 48 h, mean ± S.D., read-out: Average IC50): 3.52 ± 3.12 µM | Average SI [2, 6]: 0.51 ± 0.20 | Efficacy (%) (HEK 293T toxicity) (HEK 293T cells [3]; [7]): 102% | IC50 (HEK 293T cells [3]; [7]): 1340 nM

Compound: i-Bet-151
IC50 ([4]; Placental cancer cell line killer, mean of cell lines fulfilling criteria, 48 h, read-out: Average IC50): 19.3 ± 9.13 µM | Average SI [4, 9]: >100

IC90 [2, 10]: 391 nM
Compound: CC(C)C[C@H](NC(=O)[C@@H](NC(=O)c1cccc(-c2ccccc2)n1)[C@@H](C)O)B(O)O [CEP-18770 (Delanzomib)]
Cell Lines Active [2]: 6
